Test results as given in patent US20220142948A1, “COMPOSITIONS AND METHODS FOR MODULATING METABOLIC REGULATORS OF T CELL PATHOGENICITY” (The Broad Institute, Inc., priority 2019, published 2022).
“Also recorded” adds a separate entry of the source.

Experiments:
[1] = test system: Th17 cells (Th17n, Th17p); assay: Legendplex analysis of cytokines in culture supernatant; type: cell-based, mouse
Procedure: Legendplex. Cytokine concentrations in supernatants of in vitro cultures were analyzed by the LegendPlex Mouse Th Cytokine Panel (13-plex) (BioLegend) according to the manufacturer's instructions and analyzed on a FACS LSR II (BD Biosciences).
Seahorse assay was performed and seahorse media was prepared following manufacturer instructions (Agilent). Cells were re-stimulated with PMA/ionomycin for four hours in the presence of brefaldin and monensin before analysis for cytokines by intracellular cytokine staining. Cytokine concentrations in supernatants of in vitro cultures were analyzed by the LegendPlex Mouse Th Cytokine Panel (13-plex) (BioLegend) according to the manufacturer's instructions and analyzed on a FACS LSR II (BD Biosciences).

[2] = test system: MOG35-55 specific T cells; assay: Antigen-specific recall response of draining lymph node cells to MOG35-55 (thymidine incorporation, Legendplex); type: in vivo, mouse
Procedure: FIG. 37A-37I—Targeting ODC1 and SAT1 alleviate EAE. (A) Schematics of the polyamine pathway; (B-D) The effects of chemical inhibition of ODC1 by DFMO on EAE. Wildtype mice were immunized with MOG35-55/CFA to induce experimental autoimmune encephalomyelitis and followed for clinical scoring. DFMO were provided in drinking water from day 0 for 10 days in experimental group. B, Clinical score over time. […] C, Antigen-specific cell proliferation is measured by thymidine incorporation after culturing cells isolated from draining lymph node of mice (d15 post immunization) with increasing dose of MOG35-55 peptide for 3 days. D, Flow cytometric analysis of intracellular Foxp3 expression in T cells isolated from CNS at day 15 post immunization. (E-I) The effects of genetic perturbation of SAT1. E, The effects of SAT1 deficiency on metabolome. Abundance of metabolites in the polyamine pathway were determined by LC/MS based metabolomics. Th17n and Th17p cells were differentiated in vitro from naïve cells isolated from WT or SAT1^−/− mice. (F-I) The effects of SAT1 deficiency on EAE. EAE were induced as in (B) in wildtype and SAT1^fl/flCD4^cre mice. F, Clinical score (left) and histological score (right) showing the number of CNS infiltrates show representative experiment with 5 WT and 8 CKO mice. G-H, Cells were isolated from draining lymph node of mice (d23 post immunization) and co-cultured with increasing dose of MOG35-55 peptide for 3 days. Antigen-specific cell proliferation is measured by thymidine incorporation (G) and antigen-specific cytokine secretion by legendplex (H). I, Flow cytometry analysis of intracellular transcription factor expression in CD4 T cells isolated from CNS day 15 post immunization. Linear regression analysis (b, c, f, g), two-way anova (e) and student t test (d, i) were used for statistical analysis.
FIG. 46A-46J—EGCG exacerbates and DHEA ameliorates Th17-induced EAE in vivo. 2D2 TCR-transgenic Th17 cells were adoptively transferred after differentiation in vitro in the presence of an inhibitor or vehicle as indicated. (A, C, G) Clinical outcome of EAE; (B, D) Histological score based on cell infiltrates in meninges and parenchyma of CNS; (E, F) Draining lymph node (cervical) from respective mice were isolated and pulsed with increasing dose of MOG35-55 peptide for 3 days and (E) subjected to thymidine incorporation assay; or (F) measurement of cytokine secretion by Legendplex and flow cytometry. Concentrations were normalized through division by the respective response to no antigen control (H-I) Independent pathological report of CNS isolated from mice with EAE at end point (d35 for EGCG experiments; d28 for DHEA experiment); Optic nerves were not found in the histologic section from one animal in the EGCG+IL-23 group. (J) Representative histology of spinal cord and spinal nerve roots. […] PC, posterior column; PH, posterior horn. Individual mouse numbers are indicated. […] All are H. & E., 40× objective. Three similar experiments were performed.

[3] = test system: Th17 cells (Th17n, Th17p); assay: T cell differentiation culture and flow cytometry (intracellular cytokine and transcription factor staining, CellTrace proliferation)
Procedure: Naïve CD4+CD44-CD62L+CD25-T cells were sorted using BD FACSAria sorter and activated with plate-bound anti-CD3 (1 μg/ml) and antiCD28 antibodies (2 μg/ml) in the presence of cytokines at a concentration of 5×10^5 cells/ml.
Naïve CD4+CD44-CD62L+CD25− T cells with or without including IL-17A.GFP+ were sorted using BD FACSAria sorter and activated with plate-bound anti-CD3 and antiCD28 antibodies (each 1 μg/ml) in the presence of cytokines at a concentration of 5×10^5 cells/ml. For T cell differentiations the following combinations of cytokines were used: pathogenic Th17 (Th17p): 25 ng/ml rmIL-6, 20 ng/ml rmIL-1b (both Miltenyi Biotec) and 20 ng/ml rmIL-23 (R&D systems); non-pathogenic Th17 (Th17n): 25 ng/ml rmIL-6 and 2 ng/ml of rhTGFb1 (Miltenyi Biotec). For differentiation experiments, cells were harvested at 72 hours and were performed in the presence or absence of 50 μM EGCG (Selleck Chemicals), 50 μM DHEA, 40 μM DCA, 10 μM Shikonin (all Sigma) as indicated.
Proliferation was assessed by staining with CellTrace Violet (Thermo Fisher Scientific) per manufacturer's instructions. All stainings were analyzed on a FACS LSR II (BD Bioscience) and using FlowJo software.

[4] = supernatant from both Th17n and Th17p cultures
[5] = cMAF fl/fl CD4cre Th17 cells vs control
[6] = mice transferred with EGCG-treated Th17n cells

NCCC[C@](N)(C(=O)O)C(F)F [DFMO, 2-(difluoromethyl)ornithine]
DFMO-dependent upregulation of IL-10 ([1]; Th17n cells, loss of JMJD3, supernatant): reduced | IL-13 ([1]; pathogenic Th17 cells): decreased | IL-9 ([1]; protein, Th17n and Th17p cultures): promoted; also recorded: promoting | IL-17A [1, 4]: significantly inhibited | IL-17F [1, 4]: significantly inhibited | IFNg ([1]; supernatant, Th17n and Th17p): did not consistently influence | IL-5 ([1]; supernatant, Th17n and Th17p): did not consistently influence | IL-10 ([1]; supernatant, Th17n and Th17p): did not consistently influence | IL-13 ([1]; supernatant, Th17n and Th17p): did not consistently influence | TNFa ([1]; supernatant, Th17n and Th17p): did not consistently influence | antigen-specific recall response / proliferation (thymidine incorporation) ([2]; draining lymph node of DFMO treated EAE animals): decreases H3 incorporation; also recorded: decreases proliferation of immune cells; also recorded: significantly reduced | IL-17+ cells ([3]; DFMO at 4-5 days only (expansion phase)): no change | IL-17+ cells ([3]; DFMO at both days 1-3 and days 4-5): decrease | IL-17+ cells ([3]; DFMO at days 1-3 only (differentiation)): decrease | IL-17 positive CD4 T cells ([3]; FACS, Th17 condition not stated): decreased | cell proliferation ([3]; Th17 cultures): less cell proliferation; also recorded: reduced cell proliferation | frequency of Foxp3+ cells / Foxp3 expression ([3]; Th17n (non-pathogenic) condition): increase; also recorded: increased frequency | upregulation of Foxp3 by DFMO ([3]; Th17n cells, absence of JMJD3 (JMJD3fl/flCD4cre)): partially abrogated | Rorgt expression ([3]; Th17p cells): suppressed | Tbet expression ([3]; Th17p cells): suppressed | effect of DFMO on Foxp3 upregulation [3, 5]: partially rescued | effect of DFMO on expression of IL-17 [3, 5]: did not impact | frequency of IL-17+ cells ([3]; cells that have divided just once): significantly reduced | FoxP3 CD4 T cells ([3]; condition not stated): increase | IL-17 expression ([3]; intracellular staining, both Th17n and Th17p cells): suppresses IL-17 expression; also recorded: significantly inhibited | Rorgt expression ([3]; pathogenic and non-pathogenic Th17 cells): did not consistently alter; also recorded: does not alter

epigallocatechin-3-gallate [EGCG]
cytokine profile / cytokine production ([1]; glycolysis enzyme inhibitors, Th17 cell cultures): retained their cytokine profile | antigen-specific T cell proliferation [2, 6]: only a small difference | secretion of IL-6 in response to antigen [2, 6]: significant increase | secretion of IL-17F in response to antigen [2, 6]: significant increase | secretion of IL-17 in response to antigen [2, 6]: significant increase | secretion of IL-22 in response to antigen [2, 6]: significant increase | IFNg expression ([3]; Th17n cells): upregulation | IL-10 ([3]; Th17n cells): suppression | Tbet expression ([3]; Th17n cells): upregulation | IL-17 positive CD4 T cells / IL-17 expression ([3]; glycolysis enzyme inhibitors, non-pathogenic or pathogenic Th17 conditions, cells after one division): increase
